Source: ChEMBL document CHEMBL4041469, “The replacement of the 2-methoxy substituent of N-((6,6-diphenyl-1,4-dioxan-2-yl)methyl)-2-(2-methoxyphenoxy)ethan-1-amine improves the selectivity for 5-HT1A receptor over α1-adrenoceptor and D2-like receptor subtypes” (Eur J Med Chem, 2017)
Active and inactive are the calls of the source. The rule behind the calls is not given here.

Columns and labels:
[1] = target: T1, 5-hydroxytryptamine receptor 1A (Homo sapiens) (UniProt P08908); assay: Agonist activity at recombinant human 5HT1A receptor expressed in human HeLa cell membranes assessed as stimulation of [35S]GTPgammaS binding preincubated for 20 mins followed by [35S]GTPgammaS addition measured after 30 mins by liquid scintillation counting method; format: functional
T1 sequence (whole entry): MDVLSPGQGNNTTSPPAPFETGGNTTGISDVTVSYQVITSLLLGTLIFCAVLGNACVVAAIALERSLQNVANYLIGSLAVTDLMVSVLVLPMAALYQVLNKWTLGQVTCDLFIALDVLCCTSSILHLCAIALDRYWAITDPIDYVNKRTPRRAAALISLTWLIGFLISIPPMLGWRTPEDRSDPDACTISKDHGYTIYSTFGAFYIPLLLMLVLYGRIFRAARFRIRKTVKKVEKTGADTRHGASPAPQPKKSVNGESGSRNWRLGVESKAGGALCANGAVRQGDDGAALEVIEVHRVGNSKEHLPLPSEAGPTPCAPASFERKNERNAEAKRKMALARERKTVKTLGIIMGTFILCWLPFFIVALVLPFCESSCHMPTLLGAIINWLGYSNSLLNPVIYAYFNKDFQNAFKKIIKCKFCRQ

[2] = Selectivity index, ratio of Ki for recombinant human alpha-1a adrenergic receptor expressed in CHO cell membranes to Ki for recombinant human 5HT1A receptor expressed in human HeLa cell membranes
[3] = Selectivity index, ratio of Ki for recombinant human alpha-1b adrenergic receptor expressed in CHO cell membranes to Ki for recombinant human 5HT1A receptor expressed in human HeLa cell membranes
[4] = Selectivity index, ratio of Ki for recombinant human alpha-1d adrenergic receptor expressed in CHO cell membranes to Ki for recombinant human 5HT1A receptor expressed in human HeLa cell membranes
D(2) dopamine receptor = D(2) dopamine receptor (Homo sapiens, UniProt P14416); assay: Displacement of [3H]N-methylspiperone from recombinant human D2 receptor expressed in HEK293 cell membranes after 1 hr by liquid scintillation counting method
D(3) dopamine receptor = D(3) dopamine receptor (Homo sapiens, UniProt P35462); assay: Displacement of [3H]N-methylspiperone from recombinant human D3 receptor expressed in HEK293 cell membranes after 1 hr by liquid scintillation counting method
D(4) dopamine receptor = target: T2, D(4) dopamine receptor (Homo sapiens, UniProt P21917); assay: Displacement of [3H]N-methylspiperone from recombinant human D4 receptor expressed in HEK293 cell membranes after 1 hr by liquid scintillation counting method
T2 sequence (P21917 whole entry): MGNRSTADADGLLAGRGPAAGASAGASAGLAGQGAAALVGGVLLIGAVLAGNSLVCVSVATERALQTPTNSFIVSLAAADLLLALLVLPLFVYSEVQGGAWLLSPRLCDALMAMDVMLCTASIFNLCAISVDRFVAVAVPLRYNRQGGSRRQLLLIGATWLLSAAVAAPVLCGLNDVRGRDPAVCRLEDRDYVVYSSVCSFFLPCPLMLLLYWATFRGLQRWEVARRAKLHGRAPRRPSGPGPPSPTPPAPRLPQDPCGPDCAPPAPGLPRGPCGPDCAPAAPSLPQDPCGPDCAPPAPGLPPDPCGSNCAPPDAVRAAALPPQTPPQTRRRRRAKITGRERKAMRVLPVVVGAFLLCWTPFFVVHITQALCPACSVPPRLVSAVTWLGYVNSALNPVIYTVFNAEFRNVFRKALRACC

[5] = Selectivity index, ratio of Ki for recombinant human D2 receptor expressed in HEK293 cell membranes to Ki for recombinant human 5HT1A receptor expressed in human HeLa cell membranes
[6] = Selectivity index, ratio of Ki for recombinant human D3 receptor expressed in HEK293 cell membranes to Ki for recombinant human 5HT1A receptor expressed in human HeLa cell membranes
[7] = Selectivity index, ratio of Ki for recombinant human D4 receptor expressed in HEK293 cell membranes to Ki for recombinant human 5HT1A receptor expressed in human HeLa cell membranes
[8] = target: T3, 5-hydroxytryptamine receptor 1A (Homo sapiens, UniProt P08908); assay: Displacement of [3H]8-OH-DPAT from recombinant human 5HT1A receptor expressed in human HeLa cell membranes after 30 mins by liquid scintillation counting method
T3 sequence (P08908 whole entry): T1 sequence (whole entry)

[9] = target: T4, Alpha-1B adrenergic receptor (Homo sapiens, UniProt P35368); assay: Displacement of [3H]prazosin from recombinant human alpha-1b adrenergic receptor expressed in CHO cell membranes after 30 mins by liquid scintillation counting method
T4 sequence (P35368 whole entry): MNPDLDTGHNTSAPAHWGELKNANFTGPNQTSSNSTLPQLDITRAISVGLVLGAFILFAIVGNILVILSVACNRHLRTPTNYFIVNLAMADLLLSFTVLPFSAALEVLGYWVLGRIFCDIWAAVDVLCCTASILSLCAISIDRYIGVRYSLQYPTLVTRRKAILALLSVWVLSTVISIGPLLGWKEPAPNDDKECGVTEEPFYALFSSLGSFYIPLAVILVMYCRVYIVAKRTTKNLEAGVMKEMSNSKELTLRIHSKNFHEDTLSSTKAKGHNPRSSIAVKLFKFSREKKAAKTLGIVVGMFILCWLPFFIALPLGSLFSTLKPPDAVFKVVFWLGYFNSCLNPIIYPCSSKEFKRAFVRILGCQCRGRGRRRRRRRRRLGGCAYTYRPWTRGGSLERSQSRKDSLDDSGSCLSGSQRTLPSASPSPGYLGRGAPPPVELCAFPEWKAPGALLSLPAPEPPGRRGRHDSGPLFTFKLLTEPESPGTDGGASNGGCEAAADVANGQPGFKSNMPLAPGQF

[10] = target: T5, Alpha-1A adrenergic receptor (Homo sapiens, UniProt P35348); assay: Displacement of [3H]prazosin from recombinant human alpha-1a adrenergic receptor expressed in CHO cell membranes after 30 mins by liquid scintillation counting method
T5 sequence (P35348 whole entry): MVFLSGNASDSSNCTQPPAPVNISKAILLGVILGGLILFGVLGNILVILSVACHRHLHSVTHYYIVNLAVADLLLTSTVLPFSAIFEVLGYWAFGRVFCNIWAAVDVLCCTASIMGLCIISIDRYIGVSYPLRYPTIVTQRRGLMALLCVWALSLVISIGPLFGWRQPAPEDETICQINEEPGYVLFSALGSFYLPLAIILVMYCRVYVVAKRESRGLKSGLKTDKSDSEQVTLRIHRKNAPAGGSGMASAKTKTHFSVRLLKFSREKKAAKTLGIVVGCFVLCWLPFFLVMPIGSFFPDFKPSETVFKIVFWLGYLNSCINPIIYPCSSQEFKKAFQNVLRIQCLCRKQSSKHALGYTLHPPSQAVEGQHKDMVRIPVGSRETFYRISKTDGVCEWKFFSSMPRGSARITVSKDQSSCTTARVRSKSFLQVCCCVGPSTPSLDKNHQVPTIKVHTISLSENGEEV

[11] = target: T6, Alpha-1D adrenergic receptor (Homo sapiens, UniProt P25100); assay: Displacement of [3H]prazosin from recombinant human alpha-1d adrenergic receptor expressed in CHO cell membranes after 30 mins by liquid scintillation counting method
T6 sequence (P25100 whole entry): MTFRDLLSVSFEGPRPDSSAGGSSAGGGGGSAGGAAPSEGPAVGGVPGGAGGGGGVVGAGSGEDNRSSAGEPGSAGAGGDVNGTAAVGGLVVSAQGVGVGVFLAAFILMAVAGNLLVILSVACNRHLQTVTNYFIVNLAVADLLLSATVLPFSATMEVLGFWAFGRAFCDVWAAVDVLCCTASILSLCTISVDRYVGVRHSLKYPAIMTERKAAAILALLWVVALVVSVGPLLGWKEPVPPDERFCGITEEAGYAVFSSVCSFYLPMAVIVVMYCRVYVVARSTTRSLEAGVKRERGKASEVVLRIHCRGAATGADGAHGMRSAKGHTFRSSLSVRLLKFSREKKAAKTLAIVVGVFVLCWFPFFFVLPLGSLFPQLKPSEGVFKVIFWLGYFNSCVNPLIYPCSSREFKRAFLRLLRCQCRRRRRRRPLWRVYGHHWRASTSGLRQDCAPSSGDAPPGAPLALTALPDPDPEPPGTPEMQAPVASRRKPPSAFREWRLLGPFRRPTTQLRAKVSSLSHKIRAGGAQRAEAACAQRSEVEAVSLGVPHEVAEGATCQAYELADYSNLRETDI

[12] = target: T1, 5-hydroxytryptamine receptor 1A (Homo sapiens); assay: Agonist activity at recombinant human 5HT1A receptor expressed in human HeLa cell membranes assessed as stimulation of [35S]GTPgammaS binding up to 10 uM preincubated for 20 mins followed by [35S]GTPgammaS addition measured after 30 mins by liquid scintillation counting method relative to 5-HT; format: functional
Mus musculus [13] = assay: Anxiolytic activity in ip dosed CD-1 mouse assessed as increase in time spent in light area administered 30 mins prior to test by light/dark exploration test; format: functional, organism-based
Mus musculus [14] = assay: Anxiolytic activity in ip dosed CD-1 mouse assessed as increase in latency time to enter dark area administered 30 mins prior to test by light/dark exploration test; format: functional, organism-based
Mus musculus [15] = assay: Anxiolytic activity in CD-1 mouse assessed as increase in time spent in light area at 30 mg/kg, ip administered 30 mins prior to test in presence of 5HT1A receptor antagonist WAY100135 by light/dark exploration test; format: functional, organism-based
Mus musculus [16] = assay: Anxiolytic activity in CD-1 mouse assessed as increase in time spent in light area at 2.5 mg/kg, ip administered 30 mins prior to test by light/dark exploration test; format: functional, organism-based
Mus musculus [17] = assay: Anxiolytic activity in CD-1 mouse assessed as increase in latency time to enter dark area at 2.5 mg/kg, ip administered 30 mins prior to test by light/dark exploration test; format: functional, organism-based

D(2) dopamine receptor, sequence (P14416 whole entry): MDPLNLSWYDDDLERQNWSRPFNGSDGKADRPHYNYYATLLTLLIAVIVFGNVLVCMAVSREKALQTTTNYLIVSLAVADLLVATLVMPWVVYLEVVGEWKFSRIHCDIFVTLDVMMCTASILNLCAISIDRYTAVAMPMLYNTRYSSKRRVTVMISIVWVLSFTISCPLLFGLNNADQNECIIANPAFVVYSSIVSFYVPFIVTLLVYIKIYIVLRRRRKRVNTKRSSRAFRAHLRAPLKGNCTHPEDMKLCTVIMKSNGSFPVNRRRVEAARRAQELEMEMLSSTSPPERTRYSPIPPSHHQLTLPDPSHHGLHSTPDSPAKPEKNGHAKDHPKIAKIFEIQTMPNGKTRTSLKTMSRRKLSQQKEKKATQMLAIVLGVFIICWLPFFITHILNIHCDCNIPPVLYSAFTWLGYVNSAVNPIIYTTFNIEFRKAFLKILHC
D(3) dopamine receptor, sequence (P35462 whole entry): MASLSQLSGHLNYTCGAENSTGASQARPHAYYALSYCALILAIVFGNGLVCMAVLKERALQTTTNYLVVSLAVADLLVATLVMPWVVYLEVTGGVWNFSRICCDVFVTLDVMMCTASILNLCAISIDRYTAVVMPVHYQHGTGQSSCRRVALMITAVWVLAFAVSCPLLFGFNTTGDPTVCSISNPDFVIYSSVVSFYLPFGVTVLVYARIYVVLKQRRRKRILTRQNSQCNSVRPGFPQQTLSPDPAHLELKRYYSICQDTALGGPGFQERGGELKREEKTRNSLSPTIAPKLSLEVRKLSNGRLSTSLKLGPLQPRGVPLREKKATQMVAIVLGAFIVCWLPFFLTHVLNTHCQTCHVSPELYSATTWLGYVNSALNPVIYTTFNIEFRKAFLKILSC

| SMILES | pD2 [1] | Ki [8] [nM] | Ki [9] [nM] | Ki [10] [nM] | Ki [11] [nM] | Emax [12] [%] | further results |
| --- | --- | --- | --- | --- | --- | --- | --- |
| COc1cccc(OC)c1OCCNC[C@H]1COCC(c2ccccc2)(c2ccccc2)O1 | 8.3 |  |  |  |  |  |  |
| COc1ccccc1OCCNCC1COCC(c2ccccc2)(c2ccccc2)O1 (racemic) | 9.4 |  |  |  |  |  | Ratio Ki [2]: 42; Ratio Ki [3]: 85; Ratio Ki [4]: 2; Ki (D(2) dopamine receptor): 12.3 nM; Ki (D(3) dopamine receptor): 13.2 nM; Ki (D(4) dopamine receptor): 8.32 nM; Ratio Ki [5]: 19; Ratio Ki [6]: 20; Ratio Ki [7]: 13 |
| c1ccc(OCCNCC2COC(c3ccccc3)(c3ccccc3)CO2)cc1 (racemic) |  | 37.2 |  |  |  |  |  |
| Oc1ccccc1OCCNCC1COCC(c2ccccc2)(c2ccccc2)O1 (racemic) | 7.8 | 0.692 | 372 | 195 | 77.6 | 65.6 | Ratio Ki [4]: 112; Ki (D(2) dopamine receptor): 15.5 nM; Ki (D(3) dopamine receptor): 33.9 nM; Ki (D(4) dopamine receptor): 36.3 nM; Ratio Ki [5]: 22; Ratio Ki [6]: 49; Ratio Ki [7]: 53 |
| COCOc1ccccc1OCCNCC1COCC(c2ccccc2)(c2ccccc2)O1 (racemic) | 9.41 | 0.631 | 288 | 282 | 79.4 | 62.8 | Ratio Ki [2]: 447; Ratio Ki [3]: 457; Ratio Ki [4]: 126; Ki (D(2) dopamine receptor): 105 nM; Ki (D(3) dopamine receptor): 66.1 nM; Ki (D(4) dopamine receptor): 51.3 nM; Ratio Ki [5]: 166; Ratio Ki [6]: 105; Ratio Ki [7]: 81; Activity (Mus musculus [13]): Dose-dependent effect; Activity (Mus musculus [14]): Dose-dependent effect; Activity (Mus musculus [15]): inactive |
| COc1ccccc1N1CCN(CCN2C(=O)CC3(CCCC3)CC2=O)CC1 | 9.27 |  |  |  |  |  |  |
| COc1ccccc1OCCNC[C@@H]1COC[C@H](c2ccccc2)O1 (racemic) |  |  |  |  |  | 78.1 |  |
| COc1cccc(OC)c1OCCNCC1COC(c2ccccc2)(c2ccccc2)CO1 (racemic) |  | 229 |  |  |  |  |  |
| COc1cccc(OC)c1OCCNCC1COCC(c2ccccc2)(c2ccccc2)O1 (racemic) | 8.28 |  |  |  |  |  |  |
| Clc1ccccc1OCCNCC1COCC(c2ccccc2)(c2ccccc2)O1 (racemic) | 8.7 | 0.794 | 120 | 115 | 5.89 | 66 |  |
| COc1ccccc1OCCNC[C@H]1COCC(c2ccccc2)(c2ccccc2)O1 | 9.19 |  |  |  |  |  |  |
| COc1ccccc1OCCNC[C@@H]1CO[C@H](c2ccccc2)CO1 (racemic) | 7.88 |  |  |  |  | 85.5 |  |
| Cc1ccccc1OCCNCC1COCC(c2ccccc2)(c2ccccc2)O1 (racemic) | 8.73 | 1.12 | 178 | 170 | 5.01 | 59.7 |  |
| c1ccc(C2(c3ccccc3)COCC(CNCCOc3ccccn3)O2)cc1 (racemic) | 8.02 | 0.891 | 115 | 155 | 5.5 | 63.9 |  |
| COc1cccc(OC)c1OCCNC[C@@H]1COCC(c2ccccc2)(c2ccccc2)O1 | 5.88 |  |  |  |  |  |  |
| O=C1CC2(CCCC2)CC(=O)N1CCN1CCN(c2ccccc2O)CC1 |  |  |  |  | 16.2 |  |  |
| COc1ccccc1OCCNCC1COC(c2ccccc2)(c2ccccc2)CO1 (racemic) |  | 7.59 |  |  |  |  |  |
| CN1C(=O)CN=C(c2ccccc2)c2cc(Cl)ccc21 |  |  |  |  |  |  | Activity (Mus musculus [16]): Active; Activity (Mus musculus [17]): Active |
| COc1ccccc1OCCNC[C@@H]1COCC(c2ccccc2)(c2ccccc2)O1 | 7.7 |  |  |  |  |  |  |
| O=[N+]([O-])c1ccccc1OCCNCC1COCC(c2ccccc2)(c2ccccc2)O1 (racemic) | 8.93 | 0.562 | 251 | 117 | 6.61 | 82.5 to 82.6 |  |
